Columns and labels:
Test in all cases: relative viability (nuclei count vs DMSO), 5 days (fraction); higher = more cells survive
H3255 = system: H3255
Method in brief: (§1)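 Each reported value is a median over duplicate plates. It expresses relative viability: treated-well nuclei count divided by vehicle-well nuclei count. Lung cancer cell lines in 1536-well plates were dosed by pin tool a day after seeding, alone with one drug or with a fixed anchor-drug dose plus five library-drug doses (not always all listed) in √10 steps, and nuclei were counted after 5 days.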

NCI-H2126 = system: NCI-H2126
Method in brief: as §1

LCLC-97TM1 = system: LCLC-97TM1
Method in brief: as §1

NCI-H647 = system: NCI-H647
Method in brief: as §1

HOP-62 = system: HOP-62
Method in brief: as §1

LXF-289 = system: LXF-289
Method in brief: as §1

NCI-H1993 = system: NCI-H1993
Method in brief: as §1

NCI-H2023 = system: NCI-H2023
Method in brief: as §1

NCI-H2009 = system: NCI-H2009
Method in brief: as §1

NCI-H322M = system: NCI-H322M
Method in brief: as §1

NCI-H1734 = system: NCI-H1734
Method in brief: as §1

EPLC-272H = system: EPLC-272H
Method in brief: as §1

NCI-H1563 = system: NCI-H1563
Method in brief: as §1

NCI-H727 = system: NCI-H727
Method in brief: as §1

NCI-H2085 = system: NCI-H2085
Method in brief: as §1

NCI-H2347 = system: NCI-H2347
Method in brief: as §1

NCI-H661 = system: NCI-H661
Method in brief: as §1

PC-14 = system: PC-14
Method in brief: as §1

SW 1573 = system: SW 1573
Method in brief: as §1

NCI-H1915 = system: NCI-H1915
Method in brief: as §1

EMC-BAC-2 = system: EMC-BAC-2
Method in brief: as §1

SK-LU-1 = system: SK-LU-1
Method in brief: as §1

`Nc1ccn([C@@H]2O[C@H](CO)[C@@H](O)[C@@H]2O)c(=O)n1` [Cytarabine] + C[C@@H](Oc1cc(-c2cnn(C3CCNCC3)c2)cnc1N)c1c(Cl)ccc(F)c1Cl [Crizotinib] (partner 1 µM) was tested. Which relative viability (H3255; first compound 0.005 µM) did it give?
The relative viability was 0.76.

And the relative viability (H3255; first compound 0.01581 µM)?
The relative viability was 0.828.

And the relative viability (H3255; first compound 0.05 µM)?
Its relative viability is 0.776.

What about the relative viability (H3255; first compound 0.1581 µM) of the same molecule?
The relative viability was 0.724.

And the relative viability (H3255; first compound 0.5 µM)?
The relative viability was 0.667.

What about the relative viability (NCI-H2126; first compound 0.005 µM) of the same molecule?
Its relative viability is 0.916.

And the relative viability (NCI-H2126; first compound 0.01581 µM)?
Its relative viability is 1.01.

And the relative viability (NCI-H2126; first compound 0.05 µM)?
The relative viability was 0.96.

What about the relative viability (NCI-H2126; first compound 0.1581 µM) of the same molecule?
Its relative viability is 0.78.

What about the relative viability (NCI-H2126; first compound 0.5 µM) of the same molecule?
Its relative viability is 0.656.

And the relative viability (LCLC-97TM1; first compound 0.005 µM)?
The relative viability was 0.487.

What about the relative viability (LCLC-97TM1; first compound 0.01581 µM) of the same molecule?
Its relative viability is 0.213.

What about the relative viability (LCLC-97TM1; first compound 0.05 µM) of the same molecule?
Its relative viability is 0.181.

And the relative viability (LCLC-97TM1; first compound 0.1581 µM)?
Its relative viability is 0.115.

And the relative viability (LCLC-97TM1; first compound 0.5 µM)?
Its relative viability is 0.106.

And the relative viability (NCI-H647; first compound 0.005 µM)?
The relative viability was 0.613.

And the relative viability (NCI-H647; first compound 0.01581 µM)?
Its relative viability is 0.518.

What about the relative viability (NCI-H647; first compound 0.05 µM) of the same molecule?
Its relative viability is 0.243.

What about the relative viability (NCI-H647; first compound 0.1581 µM) of the same molecule?
Its relative viability is 0.11.

And the relative viability (NCI-H647; first compound 0.5 µM)?
Its relative viability is 0.116.

And the relative viability (HOP-62; first compound 0.005 µM)?
The relative viability was 0.766.

What about the relative viability (HOP-62; first compound 0.01581 µM) of the same molecule?
Its relative viability is 0.49.

And the relative viability (HOP-62; first compound 0.05 µM)?
Its relative viability is 0.379.

And the relative viability (HOP-62; first compound 0.1581 µM)?
Its relative viability is 0.0643.

What about the relative viability (HOP-62; first compound 0.5 µM) of the same molecule?
The relative viability was 0.0736.

And the relative viability (LXF-289; first compound 0.005 µM)?
Its relative viability is 0.745.

What about the relative viability (LXF-289; first compound 0.01581 µM) of the same molecule?
Its relative viability is 0.78.

And the relative viability (LXF-289; first compound 0.05 µM)?
Its relative viability is 0.663.

What about the relative viability (LXF-289; first compound 0.1581 µM) of the same molecule?
Its relative viability is 0.339.

What about the relative viability (LXF-289; first compound 0.5 µM) of the same molecule?
Its relative viability is 0.389.

And the relative viability (NCI-H1993; first compound 0.005 µM)?
The relative viability was 0.92.

And the relative viability (NCI-H1993; first compound 0.01581 µM)?
Its relative viability is 0.785.

And the relative viability (NCI-H1993; first compound 0.05 µM)?
Its relative viability is 0.845.

What about the relative viability (NCI-H1993; first compound 0.1581 µM) of the same molecule?
Its relative viability is 0.614.

What about the relative viability (NCI-H1993; first compound 0.5 µM) of the same molecule?
The relative viability was 0.566.

What about the relative viability (NCI-H2023; first compound 0.005 µM) of the same molecule?
The relative viability was 0.366.

And the relative viability (NCI-H2023; first compound 0.01581 µM)?
The relative viability was 0.368.

And the relative viability (NCI-H2023; first compound 0.05 µM)?
Its relative viability is 0.113.

And the relative viability (NCI-H2023; first compound 0.1581 µM)?
The relative viability was 0.101.

What about the relative viability (NCI-H2023; first compound 0.5 µM) of the same molecule?
The relative viability was 0.0749.

What about the relative viability (NCI-H2009; first compound 0.005 µM) of the same molecule?
The relative viability was 1.02.

And the relative viability (NCI-H2009; first compound 0.01581 µM)?
The relative viability was 1.01.

And the relative viability (NCI-H2009; first compound 0.05 µM)?
Its relative viability is 0.955.

What about the relative viability (NCI-H2009; first compound 0.1581 µM) of the same molecule?
Its relative viability is 0.884.

And the relative viability (NCI-H2009; first compound 0.5 µM)?
The relative viability was 0.298.

And the relative viability (NCI-H322M; first compound 0.005 µM)?
The relative viability was 0.858.

And the relative viability (NCI-H322M; first compound 0.01581 µM)?
The relative viability was 0.676.

What about the relative viability (NCI-H322M; first compound 0.05 µM) of the same molecule?
The relative viability was 0.534.

And the relative viability (NCI-H322M; first compound 0.1581 µM)?
Its relative viability is 0.366.

What about the relative viability (NCI-H322M; first compound 0.5 µM) of the same molecule?
The relative viability was 0.318.

And the relative viability (NCI-H1734; first compound 0.005 µM)?
The relative viability was 0.473.

What about the relative viability (NCI-H1734; first compound 0.01581 µM) of the same molecule?
Its relative viability is 0.326.

And the relative viability (NCI-H1734; first compound 0.05 µM)?
Its relative viability is 0.23.

What about the relative viability (NCI-H1734; first compound 0.1581 µM) of the same molecule?
Its relative viability is 0.143.

What about the relative viability (NCI-H1734; first compound 0.5 µM) of the same molecule?
Its relative viability is 0.157.

What about the relative viability (EPLC-272H; first compound 0.005 µM) of the same molecule?
The relative viability was 0.667.

And the relative viability (EPLC-272H; first compound 0.01581 µM)?
The relative viability was 0.379.

What about the relative viability (EPLC-272H; first compound 0.05 µM) of the same molecule?
The relative viability was 0.577.

And the relative viability (EPLC-272H; first compound 0.1581 µM)?
The relative viability was 0.326.

What about the relative viability (EPLC-272H; first compound 0.5 µM) of the same molecule?
Its relative viability is 0.368.

And the relative viability (NCI-H1563; first compound 0.005 µM)?
Its relative viability is 0.806.

And the relative viability (NCI-H1563; first compound 0.01581 µM)?
Its relative viability is 0.916.

And the relative viability (NCI-H1563; first compound 0.05 µM)?
Its relative viability is 0.852.

And the relative viability (NCI-H1563; first compound 0.1581 µM)?
Its relative viability is 0.809.

What about the relative viability (NCI-H1563; first compound 0.5 µM) of the same molecule?
The relative viability was 0.606.

And the relative viability (NCI-H727; first compound 0.005 µM)?
The relative viability was 0.724.

And the relative viability (NCI-H727; first compound 0.01581 µM)?
The relative viability was 0.579.

And the relative viability (NCI-H727; first compound 0.05 µM)?
The relative viability was 0.636.

And the relative viability (NCI-H727; first compound 0.1581 µM)?
Its relative viability is 0.359.

What about the relative viability (NCI-H727; first compound 0.5 µM) of the same molecule?
The relative viability was 0.3.

And the relative viability (NCI-H2085; first compound 0.005 µM)?
The relative viability was 0.718.

What about the relative viability (NCI-H2085; first compound 0.01581 µM) of the same molecule?
The relative viability was 0.883.

And the relative viability (NCI-H2085; first compound 0.05 µM)?
Its relative viability is 0.799.

And the relative viability (NCI-H2085; first compound 0.1581 µM)?
Its relative viability is 0.552.

And the relative viability (NCI-H2085; first compound 0.5 µM)?
Its relative viability is 0.621.

What about the relative viability (NCI-H2347; first compound 0.005 µM) of the same molecule?
Its relative viability is 0.827.

What about the relative viability (NCI-H2347; first compound 0.01581 µM) of the same molecule?
Its relative viability is 0.719.

And the relative viability (NCI-H2347; first compound 0.05 µM)?
Its relative viability is 0.573.

And the relative viability (NCI-H2347; first compound 0.1581 µM)?
The relative viability was 0.642.

What about the relative viability (NCI-H2347; first compound 0.5 µM) of the same molecule?
Its relative viability is 0.467.

What about the relative viability (NCI-H661; first compound 0.005 µM) of the same molecule?
Its relative viability is 0.963.

What about the relative viability (NCI-H661; first compound 0.01581 µM) of the same molecule?
Its relative viability is 1.15.

What about the relative viability (NCI-H661; first compound 0.1581 µM) of the same molecule?
Its relative viability is 0.975.

And the relative viability (NCI-H661; first compound 0.5 µM)?
Its relative viability is 0.632.

And the relative viability (PC-14; first compound 0.005 µM)?
Its relative viability is 0.805.

And the relative viability (PC-14; first compound 0.01581 µM)?
Its relative viability is 0.84.

And the relative viability (PC-14; first compound 0.05 µM)?
Its relative viability is 0.778.

And the relative viability (PC-14; first compound 0.1581 µM)?
The relative viability was 0.439.

And the relative viability (PC-14; first compound 0.5 µM)?
Its relative viability is 0.2.

What about the relative viability (SW 1573; first compound 0.005 µM) of the same molecule?
Its relative viability is 0.83.

And the relative viability (SW 1573; first compound 0.01581 µM)?
Its relative viability is 0.868.

And the relative viability (SW 1573; first compound 0.05 µM)?
Its relative viability is 0.864.

And the relative viability (SW 1573; first compound 0.1581 µM)?
Its relative viability is 0.412.

What about the relative viability (SW 1573; first compound 0.5 µM) of the same molecule?
Its relative viability is 0.179.

What about the relative viability (NCI-H1915; first compound 0.005 µM) of the same molecule?
Its relative viability is 0.888.

And the relative viability (NCI-H1915; first compound 0.01581 µM)?
The relative viability was 0.882.

And the relative viability (NCI-H1915; first compound 0.05 µM)?
The relative viability was 0.686.

What about the relative viability (NCI-H1915; first compound 0.1581 µM) of the same molecule?
The relative viability was 0.393.

And the relative viability (NCI-H1915; first compound 0.5 µM)?
Its relative viability is 0.333.

What about the relative viability (EMC-BAC-2; first compound 0.005 µM) of the same molecule?
Its relative viability is 0.592.

What about the relative viability (EMC-BAC-2; first compound 0.01581 µM) of the same molecule?
The relative viability was 0.574.

What about the relative viability (EMC-BAC-2; first compound 0.05 µM) of the same molecule?
Its relative viability is 0.472.

What about the relative viability (EMC-BAC-2; first compound 0.1581 µM) of the same molecule?
Its relative viability is 0.242.

And the relative viability (EMC-BAC-2; first compound 0.5 µM)?
The relative viability was 0.185.

What about the relative viability (SK-LU-1; first compound 0.005 µM) of the same molecule?
The relative viability was 0.957.

And the relative viability (SK-LU-1; first compound 0.01581 µM)?
Its relative viability is 0.83.

And the relative viability (SK-LU-1; first compound 0.05 µM)?
The relative viability was 0.694.

And the relative viability (SK-LU-1; first compound 0.1581 µM)?
Its relative viability is 0.605.

And the relative viability (SK-LU-1; first compound 0.5 µM)?
Its relative viability is 0.398.
